Laboratory results: paper PMC3112094, “Pro-apoptotic activity of α-bisabolol in preclinical models of primary human acute leukemia cells” (Journal of Translational Medicine, 2011)

Experiments:
[1] = test system: leukemic blasts; assay: PARP cleavage (Western blot) and DNA ladder; format: cell-based, human; conditions: blasts of case Ph^-B-ALL #01 after α-bisabolol exposure
Experimental: Cells were homogenized at 4°C in 50 mM Tris-HCl (pH 8) containing 0.1% Nonidet-P40 (NP-40), 200 mM KCl, 2 mM MgCl2, 50 μM ZnCl2, 2 mM DTT, and protease inhibitors [1 mM phenylmethylsulfonyl fluoride (PMSF), 1 mg/mL leupeptin, and 1 mg/mL antipain]. Aliquots of the homogenates (40 μg total protein/lane) were loaded on SDS-polyacrylamide gels at the appropriate concentrations. Electrophoresis was performed at 100 V with a running buffer containing 0.25 M Tris-HCl (pH 8.3), 1.92 M glycine, and 1% SDS. The resolved proteins were electroblotted onto a nitrocellulose membrane using the iBlot™ system (Invitrogen, Carlsbad, CA). Membranes were then incubated with a mouse monoclonal IgG antibody to poly(ADP-ribose) polymerase (PARP) (Zymed, South San Francisco, CA), with a rabbit polyclonal IgG antibody to BID (Cell Signaling Technology, Danvers, MA) or with a rabbit polyclonal IgG antibody to α-tubulin (Cell Signaling Technology). The membranes were then washed and incubated with an anti-mouse or anti-rabbit IgG peroxidase-conjugated antibody (Cell Signaling Technology). The blots were washed again and then incubated with enhanced chemiluminescent detection reagents (Immun-Star™ WesternC™ Kit, Bio-Rad, Hercules, CA) according to the manufacturer's instructions. Proteins were detected using the ChemiDoc XRS Imaging System (Bio-Rad). […]

[2] = set-up: method as in PMID 14975741; conditions: previous studies ref 1; cited from earlier work
[3] = Concentrations and tolerability in healthy mice; format: in vivo; conditions: 1.4 g/Kg α-bisabolol
[4] = test system: CD33^+my cells; assay: Cytotoxicity in normal bone marrow cells, TruCOUNT flow cytometry; format: cell-based, human; conditions: 5 normal bone marrow samples; for cytotoxicity: 24 hours, mean ± SD
Experimental: (§1) Viable peripheral blood leukocytes and bone marrow cells from - 4 - control donors were treated and used as specified above for leukemic cells.
(§2) Cells derived from patients or normal donors were exposed for 24 hours to 20, 40, 80, and 160 μM α-bisabolol dissolved in ethanol (1:8 in order to minimize drug volumes), and when appropriate to 3 μM imatinib mesylate (Novartis, Basel, CH), representative of the in vivo active concentration. All cytotoxicity tests were performed in triplicate.
(§3) The absolute counts of normal leukocytes sub-populations were measured with TruCOUNT tubes (Becton Dickinson, San Jose, CA) by polychromatic flow cytometry according to the manufacturer's instructions with minor modifications. Peripheral blood and bone marrow cells were cultured with α-bisabolol for 24, 48, 72, 96 and 120 hours. At the end of the culture, 200 μL of sample, a mixture of antibodies (CD45 APC-H7, CD3 PE-Cy7, CD19 PE, CD14 APC for peripheral blood and CD45 APC-H7, CD34 PE, CD33 PE-Cy7 for bone marrow) and 7-amino-actinomycin D (all reagents from Becton Dickinson) for dead cells exclusion were added to the TruCOUNT tubes. After a 15-minute incubation at room temperature, 1 mL lysing reagent (Biosource, Nivelles, BE) was added for 10 minutes. A total of 40,000 beads were acquired on a FACSCanto cytometer (Becton Dickinson). A sequential Boolean gating strategy was used to accurately enumerate different populations.
(§4) Student's t-test for means, chi-squared tests, Mann-Whitney U test and Kruskall-Wallis analysis of variance by ranks were considered significant for p values < 0.05.

[5] = test system: CD34^+ cells; assay: as above; format: cell-based, human; conditions: for cytotoxicity: 24 hours, mean ± SD; for IC50: Homo sapiens, Bone marrow cell, 24 h, 24-hour
Experimental: as §1, §2, §3, §4

[6] = test system: primary acute leukemia cells; assay: cells; format: cell-based, human; conditions: for IC50: Homo sapiens, 24 h
Experimental: as §2
A lactate dehydrogenase (LDH) release assay was conducted as follows. Thawed cells were resuspended in RPMI-1640 (Lonza, Basel, CH) supplemented with 10% heat-inactivated fetal bovine serum (FBS, Lonza), 50 U/mL penicillin and 50 μg/mL streptomycin (complete medium, CM), seeded at a density of 2 × 10^6 cell/mL and incubated at 37°C in 5% CO2. After 24 hours, the cells were treated with α-bisabolol (or ethanol as a vehicle control) as specified above. Cytotoxicity was determined using the Cytotoxicity Detection Kit^PLUS according to the manufacturer's recommendations (Roche, Mannheim, DE). LDH leakage was measured as the ratio of treatment-induced LDH to spontaneous LDH release. α-bisabolol and imatinib mesylate data were reported as the percent cytotoxicity for treated compared to untreated cells and plotted as dose-response curves over 24 hours. The half maximal inhibitory concentration (IC50) was determined when appropriate.
To generate a classification based on α-bisabolol sensitivity, samples were grouped using the complete linkage hierarchical clustering algorithm available in the MultiExperiment Viewer (MeV, version 4.3 - http://www.tm4.org/mev/). A heat map for sensitivity was derived using the percentage data for mortality after adding α-bisabolol with respect to spontaneous mortality at the same time.
as §4

CC(C)=CCC[C@](C)(O)[C@@H]1CC=C(C)CC1 [α-bisabolol]
PARP cleavage and DNA laddering [1]: underwent PARP cleavage and DNA laddering | solubility fraction [2]: 2.5% | blood parameters of liver and kidney functionality [3]: preserved | concentration in the brain [3]: exceeded 50 μM | cytotoxicity ([4]; 20 μM α-bisabolol): 2 ± 2% | cytotoxicity ([4]; 40 μM α-bisabolol): 4 ± 3% | cytotoxicity ([4]; 80 μM α-bisabolol): 40 ± 39% | cytotoxicity ([4]; 160 μM α-bisabolol): 99 ± 1% | IC50 ([4]; Homo sapiens, Bone marrow cell, 24-hour): 95 ± 7 µM | cytotoxicity ([5]; CD34^+, 5 normal bone marrow samples, 20 μM α-bisabolol): 1 ± 2% | cytotoxicity ([5]; CD34^+, 5 normal bone marrow samples, 40 μM α-bisabolol): 22 ± 19% | cytotoxicity ([5]; CD34^+, 5 normal bone marrow samples, 80 μM α-bisabolol): 72 ± 35% | cytotoxicity ([5]; CD34^+, 5 normal bone marrow samples, 160 μM α-bisabolol): 98 ± 1% | IC50 ([5]; CD34^+, 5 normal bone marrow samples): 62 ± 9 µM | IC50 ([5]; CD34^+/19^+ cells, normal bone marrow): 63 ± 4 µM | IC50 ([5]; CD34^+/33^+ cells, normal bone marrow): 64 ± 6 µM | responsiveness of all leukemia cases ([6]; 65 μM α-bisabolol for 24 hours): eventually responsive | IC50 ([6]; cluster 1, n 8, 24-hour): 14 ± 5 µM | IC50 ([6]; cluster 2, n 19, 24-hour): 45 ± 7 µM | IC50 ([6]; cluster 3, 15 acute leukemia samples, 24-hour): 65 ± 5 µM | IC50 ([6]; cluster 3, 17: 15 acute leukemias plus CD34^+ and CD33^+my samples, 24-hour): 64 ± 5 µM
